From patent publication US20250066344A1 (BRISTOL-MYERS SQUIBB COMPANY, priority 2021, published 2025) come the findings set out here.

The experiment concerns the target T1, human RXFP1 (Homo sapiens, UniProt Q9HBX9).
T1 construct: expressed in transfected cells
T1 sequence (Q9HBX9 1-757): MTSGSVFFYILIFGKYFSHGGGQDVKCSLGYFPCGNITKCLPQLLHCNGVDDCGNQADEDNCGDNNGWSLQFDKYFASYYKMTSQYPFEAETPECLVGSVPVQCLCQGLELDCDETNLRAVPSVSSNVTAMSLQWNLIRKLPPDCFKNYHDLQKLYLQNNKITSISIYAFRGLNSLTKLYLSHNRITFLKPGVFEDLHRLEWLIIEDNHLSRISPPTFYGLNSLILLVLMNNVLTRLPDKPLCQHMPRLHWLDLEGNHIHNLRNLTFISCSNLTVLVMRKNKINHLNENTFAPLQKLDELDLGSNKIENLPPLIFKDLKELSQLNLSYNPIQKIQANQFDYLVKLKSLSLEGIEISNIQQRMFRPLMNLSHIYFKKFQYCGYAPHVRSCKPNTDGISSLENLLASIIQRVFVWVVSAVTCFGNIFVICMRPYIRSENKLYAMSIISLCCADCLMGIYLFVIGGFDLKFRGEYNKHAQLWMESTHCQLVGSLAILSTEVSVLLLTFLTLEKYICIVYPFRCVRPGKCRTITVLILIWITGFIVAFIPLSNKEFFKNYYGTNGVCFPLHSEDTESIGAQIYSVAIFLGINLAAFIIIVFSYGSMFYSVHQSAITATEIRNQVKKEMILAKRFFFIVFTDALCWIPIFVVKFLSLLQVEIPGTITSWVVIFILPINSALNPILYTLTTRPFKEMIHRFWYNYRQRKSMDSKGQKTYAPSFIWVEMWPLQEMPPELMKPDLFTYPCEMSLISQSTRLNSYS
Kind of experiment: RXFP1 cyclic adenosine monophosphate (cAMP) assay, hRXFP1 HEK293. It counts as cell-based. To be noted: HEK293 cells stably expressing human RXFP1; 30 min at room temperature; HTRF cAMP. Here is the method: RXFP1 Cyclic Adenosine Monophosphate (cAMP) Assays. Human embryonic kidney cells 293 (HEK293) cells and HEK293 cells stably expressing human RXFP1, were cultured in MEM medium supplemented with 10% qualified FBS, and 300 μg/ml hygromycin (Life Technologies). Cells were dissociated and suspended in assay buffer. The assay buffer was HBSS buffer (with calcium and magnesium) containing 20 mM HEPES, 0.05% BSA, and 0.5 mM IBMX. Cells (3000 cells per well, except 1500 cell per well for HEK293 cells stably expressing human RXFP1) were added to 384-well Proxiplates (Perkin-Elmer). Cells were immediately treated with test compounds in DMSO (2% final) at final concentrations in the range of 0.010 nM to 50 μM. Cells were incubated for 30 min at room temperature. The level of intracellular cAMP was determined using the HTRF HiRange cAMP assay reagent kit (Cisbio) according to manufacturer's instructions. Solutions of cryptate conjugated anti-cAMP and d2 fluorophore-labelled cAMP were made in a supplied lysis buffer separately. Upon completion of the reaction, the cells were lysed with equal volume of the d2-cAMP solution and anti-cAMP solution. After a 1 h room temperature incubation, time-resolved fluorescence intensity was measured using the Envision (Perkin-Elmer) at 400 nm excitation and dual emission at 590 nm and 665 nm. A calibration curve was constructed with an external cAMP standard at concentrations ranging from 2.7 μM to 0.1 μM by plotting the fluorescent intensity ratio from 665 nm emission to the intensity from the 590 nm emission against cAMP concentrations. The potency and activity of a compound to […] cAMP production was then determined by fitting to a 4-parametric logistic equation from a plot of cAMP level versus compound concentrations.
The examples disclosed below were tested in the human RXFP1 (hRXFP) HEK293 cAMP assay described above and found to have agonist activity. Tables 1-3, lists EC50 values in the hRXFP1 HEK293 cAMP assay measured for the examples.
Table A lists EC50 values in the hRXFP1 HEK293 cAMP assay measured for the examples.
For `COCC1CC(c2ccc(OC)c(C(=O)Nc3cc4c(cc3C(=O)Nc3ccc(F)c(C(F)(F)F)c3)OC(F)(F)O4)c2)=NO1` (centres unmarked) [Example 83, 2,2-difluoro-N-(4-fluoro-3-(trifluoromethyl)phenyl)-6-(2-methoxy-5-(5-(methoxymethyl)-4,5-dihydroisoxazol-3-yl)benzamido)benzo[d] [1,3]dioxole-5-carboxamide], the response was half-maximal at 399 nM (EC50).
Take `COc1ccc(-c2cnc3n2CCN(CC(N)=O)C3)cc1C(=O)Nc1cc2c(cc1C(=O)Nc1ccc(F)c(C(F)(F)F)c1)OC(F)(F)O2` [Example 82, 6-(5-(7-(2-amino-2-oxoethyl)-5,6,7,8-tetrahydroimidazo[1,2-a]pyrazin-3-yl)-2-methoxybenzamido)-2,2-difluoro-N-(4-fluoro-3-(trifluoromethyl)phenyl) benzo[d][1,3]dioxole-5-carboxamide]: the EC50 came to 144 nM.
Molecule `CC1(C)Cc2cc(C3=NOC4CC(CO)CC34)cc(C(=O)Nc3cc4c(cc3C(=O)Nc3ccc(F)c(C(F)(F)F)c3)OC(F)(F)O4)c2O1` (centres unmarked) [Example 100, 2,2-difluoro-N-(4-fluoro-3-(trifluoromethyl)phenyl)-6-(5-(5-(hydroxymethyl)-3a,5,6,6a-tetrahydro-4H-cyclopentafdlisoxazol-3-yl)-2,2-dimethyl-2,3-dihydrobenzofuran-7-carboxamido)benzo[d] [1,3]dioxole-5-carboxamide] registered an EC50 of 8.4 nM.
Molecule `COc1ccc(-c2cc([C@H](OC(=O)NC3CCC3)C(F)(F)F)ccc2F)cc1C(=O)Nc1cc2sc(C)nc2cc1C(=O)Nc1ccc(F)c(C(F)(F)F)c1` [Example 16, (S)-2,2,2-trifluoro-1-(6-fluoro-3′-((5-((4-fluoro-3-(trifluorometh-yl)phenyl)car-bamoyl)-2-methylbenzo [d]thiazol-6-yl)carbamoyl)-4′-methoxy-[1,1′-biphen-yl]-3-ylethylcyclobutylcar-bamate] returned an EC50 of 46 nM.
Turning to `COc1ccc(C2=NOC(C(C)(C)O)C2)cc1C(=O)Nc1cc2nc(C)sc2cc1C(=O)Nc1ccc(F)c(C(F)(F)F)c1` (centres unmarked) [Example 11, N-(4-fluoro-3-(trifluorometh-yl)phenyl)-5-(5-(5-(2-hydroxypro-pan-2-yl)-4,5-dihydroisox-azol-3-yl)-2-methoxybenz-amido)-2-methylbenzo [d]thiazole-6-carboxamide], a half-maximal effect (EC50) was put at 160 nM.
`COc1ccc(C2=NOC3CNCC23)cc1C(=O)Nc1cc2c(cc1C(=O)Nc1ccc(F)c(C(F)(F)F)c1)OC(F)(F)O2` (single isomer, unassigned) [Example 43, 2,2-difluoro-N-(4-fluoro-3-(trifluoromethyl)phenyl)-6-(2-methoxy-5-(3a,5,6,6a-tetrahydro-4H-pyrrolo[3,4-d]isoxazol-3-yl)benzamido)benzo[d][1,3]dioxole-5-carboxamide] returned an EC50 of 13 nM.
As for `COc1ccc(C2=NOC(C(C)(C)O)C2)cc1C(=O)Nc1cc2c(cc1C(=O)Nc1ccc(F)c(C(F)(F)F)c1)OC(F)(F)O2` (single isomer, unassigned) [Example 76, 2,2-difluoro-N-(4-fluoro-3-(trifluoromethyl)phenyl)-6-(5-(5-(2-hydroxypropan-2-yl)-4,5-dihydroisoxazol-3-yl)-2-methoxybenzamido) benzo[d][1,3]dioxole-5-carboxamide], the figure is 258 nM; as for `COc1ccc(C2=NOC3(C2)CN(C(=O)CO)C3)cc1C(=O)Nc1cc2c(cc1C(=O)Nc1ccc(F)c(C(F)(F)F)c1)OC(F)(F)O2` [Example 75, 2,2-difluoro-N-(4-fluoro-3-(trifluoromethyl)phenyl)-6-(5-(2-(2-hydroxyacetyl)-5-oxa-2,6-diazaspiro[3.4]oct-6-en-7-yl)-2-methoxybenzamido) benzo[d][1,3]dioxole-5-carboxamide], 231 nM.
